Measurements taken from patent US5925333A, “Methods for modulation of lipid uptake” (Massachusetts Institute of Technology, priority 1995, dated 1999).

Experiments:
SR-BI = test: Immunoblot of SR-BI expression in tissues of estrogen-treated rats; format: in vivo, rat; settings: 5 mg/kg subcutaneous for five consecutive days
Method: To determine the size of mSR-BI and its tissue distribution, a rabbit anti-mSR-BI polyclonal antibody was prepared by immunization of a 16 amino acid peptide (residues 495 to 509 from the predicted protein sequence of mSR-BI plus an additional N-terminal cysteine) coupled to keyhole limpet hemocyanin. This is referred to as anti-mSR-BI^495 antiserum. The antiserum was used for immunoblot analysis of cultured cells and murine tissues.
Post-nuclear cell extracts from ldlA and ldlA[mSR-BI] cells and membranes (post-nuclear 100,000×g pellets) from murine tissues were isolated, reduced, and separated by 6.5% SDS-polyacrylamide gel electrophoresis (50 μg protein/lane), transferred to nitrocellulose and probed with a primary anti-mSR-BI^495 antipeptide antibody (rabbit IgG fraction, 1:5000 dilution) and developed using a horseradish peroxidase labeled second antibody and ECL kit (5 min exposure, Amersham). Ponceau S staining was used as a control for gel loading and transfer.
Tissues of estrogen-treated rats were screened for expression of SR-BI as described above following treatment of rats with 17-α-ethylenyl estradiol (estrogen). The rats were treated for five consecutive days with subcutaneous injections of 5 mg/kg 17-α-ethylenyl estradiol in propylene glycol or with propylene glycol alone (sham-injected).

LDL receptor = test: Immunoblot of LDL receptor expression in estrogen-treated rats; format: in vivo, rat; settings: 5 mg/kg subcutaneous for five consecutive days, vs sham, liver
liver cells = test: Uptake of lipid from fluorescently labeled HDL injected into estrogen-treated rats, liver; format: in vivo, rat; settings: fluorescently labeled HDL injected into estrogen-treated vs sham-injected rats
adrenal tissues = test: Uptake of lipid from fluorescently labeled HDL injected into estrogen-treated rats, adrenal; format: in vivo, rat; settings: fluorescently labeled HDL injected into estrogen-treated vs sham-injected rats
[1] = molecular target: murine scavenger receptor protein type BI (mSR-BI) (murine)
[2] = molecular target: murine scavenger receptor protein type BI (mSR-BI) (murine); remark: listed apart in the source

cell association of the lipid-labeled component of HDL (3H-cholesteryl oleate or DiI) [1] | total cellular cholesterol (free and esterified) after incubation with unlabeled HDL (20 µg protein/ml, 5 hrs) [2] | Substance | SR-BI expression in liver (SR-BI; vs sham, liver) | SR-BI levels in tissues showing trace signal (SR-BI; vs sham, lung, testes and skin) | SR-BI expression in rat adrenal membranes (SR-BI; vs sham-injected controls, adrenal membranes) | LDL receptor expression (LDL receptor) | Uptake of HDL-derived lipids into liver cells (liver cells) | Uptake of lipid into adrenal tissues (adrenal tissues)
 |  | 17-α-ethylenyl estradiol [estrogen] | dramatically downregulated | no change | upregulation | tremendous upregulation | no similar uptake | dramatically increased
18% | 20 % increase | high density lipoprotein (HDL) prepared from human plasma (from UniProt P02647) |  |  |  |  |  | 
